Entries after “also recorded” stand apart in the source; their conditions may differ.
Legend:
CYP2D6 = CYP2D6 (Homo sapiens, UniProt P10635); assay: CYP450 enzymatic metabolism in human liver microsomes; conditions: human liver microsomes 0.1 mg/mL, 20 min, 37 C
Experimental: CYP450 dependent activities were determined using a known substrate. […] A known inhibitor, such as quinidine, tested at a single concentration 3.00 μM was included as positive control. Incubation mixture containing human liver microsomes (0.1 mg/mL), substrate (5 μM) and standard inhibitor or test compound were warmed at 37 C for 10 minutes. Reactions were initiated by addition of the NADPH (1 mM) and the mixture was incubated for 20 minutes at 37° C. water bath. The organic solvent in the reaction mixture was DMSO. After incubation, ice cold acetonitrile was added to terminate the reaction. Generation of metabolite from the substrate reactions was determined by LC-MS/MS and assessed based on peak area ratios of analyte/IS. Mean was used to calculate the extent of inhibition (expressed as % of control activity).

[1] = system: murine model of schizophrenia; assay: Open-field test (ambulation, rearing, grooming) in the PCP mouse model
Experimental: Mice were assessed for hyperactivity behavior on postnatal day 16 (FIG. 2). Mice were placed in the center of a transparent glass cube cage 30×40 X31 cm divided into squares of 7.5×7.5 cm. The number of squares and rearing activity were counted for 8 min.
Mice were assessed for hyperactivity behavior on postnatal day 64-66. Mice were placed in the center of a transparent glass cube cage 30×40 X31 cm divided into squares of 7.5×7.5 cm. The number of squares and rearing activity were counted for 8 min.

cannabinoid receptor CB2 = cannabinoid receptor CB2 (Homo sapiens, UniProt P34972); conditions: cited from earlier work
[2] = system: DOI-induced psychotic-like behaviour; format: in vivo, mice
CB2 receptor = CB2 receptor (Homo sapiens, UniProt P34972); conditions: Chicca A. et al 2014; cited from earlier work
[3] = Hanus et al 1999, cited from earlier work
[4] = system: murine model of schizophrenia; assay: Prepulse inhibition (PPI) of the startle reflex in the PCP mouse model; format: in vivo, mice; conditions: age 7-8 weeks
Experimental: In this experimental model, a weak stimulus (74-90 dB tone) inhibited the subsequent response to a strong stimulus (120 dB tone). Reduced prepulse inhibition of the startle reflex (PPI) was taken as an index of the positive symptoms of schizophrenia (Josselyn and Vaccarino, 1998).
PPI was assessed similarly to the method described by Varty et al. In the employed model, mice were placed in a startle chamber and allowed to acclimate for 5 min. A loudspeaker produced a 65 dB background white noise or the various acoustic pre-pulse stimuli (dB): 74, 78, 82, 86, and 90 (20 ms). A 120 dB (40 ms) stimulus was given first to induce a response to startle. The response of the mouse was transduced and stored by a computer. Each test session lasted for 11 min and consisted of 5 presentations of each of the trial types presented in random order and separated by 15 second intervals. The amount of prepulse inhibition was calculated as % PPI=[1−(startle response for prepulse+pulse)/(startle response for pulse alone)]×100.
The % PPI indicates of level of disruption of the sensorimotor gating system in schizophrenia but also serves as an indicator of memory function. The % PPI after administration of PCP and treatment of BCP in the PPI test also serve as an index of memory function, further supporting the function of the sensorimotor system.

[5] = Body weight in the neonatal PCP mouse model of schizophrenia; conditions: PCP 5 mg/kg injected postnatally
[6] = system: murine model of schizophrenia; assay: Elevated Plus Maze test in the PCP mouse model; format: in vivo, mice; conditions: age 13 weeks; PCP 5 mg/kg injected postnatally
Experimental: Anxiety as measured by the paucity of time spent on the two, anxiety-provoking, open arms (as opposed to the two enclosed arms) of an “Elevated Plus Maze” was used as a parameter of negative symptoms of schizophrenia (Josselyn and Vaccarino, 1998). The plus maze was elevated 50 cm above the table top. Behavior of each mouse was recorded for 5 min by a video camera and scored using the “EthoVision” software (Noldus Information Technology, Wageningen, The Netherlands), measuring the number of entries as well as the amount of time spent in each arm, open or closed. Increased time spent in the closed arms indicated increased anxiety. Increased time spent in the opened arms indicated anxiolytic behavior (reduced stress).

[7] = system: murine model of schizophrenia; assay: PhenoTyper cage behaviour in the PCP mouse model; format: in vivo, mice; conditions: PCP 5 mg/kg injected postnatally
[8] = Skold et al. 2006; cited from earlier work

Chain of CB2 receptor (P34972 whole entry): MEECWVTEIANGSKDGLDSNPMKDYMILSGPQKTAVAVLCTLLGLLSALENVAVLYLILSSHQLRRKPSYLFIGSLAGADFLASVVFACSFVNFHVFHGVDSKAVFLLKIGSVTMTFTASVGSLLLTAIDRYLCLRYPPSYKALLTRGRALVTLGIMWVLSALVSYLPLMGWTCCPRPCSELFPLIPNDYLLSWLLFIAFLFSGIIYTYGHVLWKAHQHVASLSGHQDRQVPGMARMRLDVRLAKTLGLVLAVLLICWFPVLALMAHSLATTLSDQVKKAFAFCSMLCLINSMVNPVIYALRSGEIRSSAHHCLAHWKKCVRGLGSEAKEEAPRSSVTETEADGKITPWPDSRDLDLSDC
Chain of CYP2D6 (P10635 whole entry): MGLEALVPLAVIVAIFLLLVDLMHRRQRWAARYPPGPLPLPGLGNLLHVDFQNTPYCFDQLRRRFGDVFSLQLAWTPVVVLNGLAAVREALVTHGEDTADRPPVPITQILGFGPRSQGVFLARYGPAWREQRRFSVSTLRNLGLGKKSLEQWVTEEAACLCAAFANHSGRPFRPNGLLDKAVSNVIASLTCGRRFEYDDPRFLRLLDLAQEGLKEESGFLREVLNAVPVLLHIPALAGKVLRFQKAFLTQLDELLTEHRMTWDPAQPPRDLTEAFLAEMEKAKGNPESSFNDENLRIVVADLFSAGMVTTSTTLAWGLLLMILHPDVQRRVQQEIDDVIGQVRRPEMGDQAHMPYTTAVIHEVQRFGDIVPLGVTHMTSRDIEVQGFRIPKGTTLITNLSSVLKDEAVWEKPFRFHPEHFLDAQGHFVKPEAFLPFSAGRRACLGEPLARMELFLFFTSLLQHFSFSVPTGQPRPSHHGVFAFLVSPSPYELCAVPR
Chain of cannabinoid receptor CB2 (P34972 whole entry): as the sequence (P34972 whole entry) above

Cc1nc2n(c(=O)c1CCN1CCC(c3noc4cc(F)ccc34)CC1)CCCC2 [risperidone, Risperidone, reference compound]
inhibition of CYP2D6 enzymatic activity (CYP2D6): inhibited the activity of CYP2D6 enzyme | inhibition of CYP2D6 enzymatic activity (CYP2D6; listed as Risperidone): inhibited CYP2D6 enzymatic activity | activity in the open field test, male mice ([1]; postnatal day 64, postnatal PCP 5 mg/kg, oral risperidone 0.5 mg/kg twice a week, PND 43-62): reversed the effect of 5 mg/kg PCP on activity in the open field test of male mice at postnatal day 64

COc1ccc(C(=O)c2c(C)n(CCN3CCOCC3)c3cc(I)ccc23)cc1 [AM630, 6-Iodopravadoline, reference compound]
Ki (cannabinoid receptor CB2): 32.1 nM | open-field ambulation and rearing, reversal of the BCP effect ([1]; PND 17, male mice, AM630 10 mg/kg co-injected with BCP 10 mg/kg 1 h after PCP): reversed the effects of BCP on ambulation and rearing behaviors; also recorded: not significantly different from these of PCP-treated mice; also recorded: reversed the effect of BCP on PCP-induced inhibition of ambulation and rearing

COc1cc(CC(C)N)c(OC)cc1I.Cl (single isomer, unassigned; (-)) [DOI, (−)-1-(2,5-Dimethoxy-4-iodophenyl)-2-aminopropane hydrochloride, reference compound]
grooming response, DOI vs control ([2]; DOI injected intraperitoneally to mice, hydrochloride): significantly increased the grooming response

C/C1=C\CC/C(C)=C/CC(C)(C)/C=C/C1 [alpha-humulene]
CB2 receptor binding (CB2 receptor): inactivity

CCCCCCC(C)(C)c1cc(OC)c([C@@H]2C=C(CO)[C@@H]3C[C@H]2C3(C)C)c(OC)c1 [HU-308, [(1R,2R,5R)-2-[2,6-dimethoxy-4-(2-methyloctan-2-yl)phenyl]-7,7-dimethyl-4-bicyclo[3.1.1]hept-3-enyl]methanol]
time to inhibition of DOI-induced psychotic-like behaviour ([2]; HU-308 i.p. before DOI): already after about one hour | DOI-induced grooming response ([2]; HU-308 injected intraperitoneally one to two hours before DOI): reverses the effects of the psychedelic drug DOI on behavioral symptoms in a murine model; also recorded: significantly reversed the effect of DOI on grooming response | body weight of adult mice [3]: does not modulate body weight of adult mice | psychoactivity in vivo [3]: non-psychoactive agent in vivo | open field assay ([3]; similar age of mice (about PND 63)): no effects of HU-308 in the open field assay | % PPI ([4]; HU-308 5 mg/kg injected 1 h after PCP postnatally (Cremophor EL:ethanol:saline), 5 mg/kg): reversed the effect of PCP on the % PPI; also recorded: reversed the effect of PCP in the PPI test

c1ccc(C2(N3CCCCC3)CCCCC2)cc1 [PCP, Phencyclidine, reference compound]
body weight, PCP vs vehicle ([5]; weight PND 3-17): significantly reduce the body weight; also recorded: induced a significant reduction in body weight; also recorded: difference between vehicle- and PCP-treated groups in body weight was still significant; also recorded: significantly reduced body weight in male and female mice | body weight, PCP vs vehicle ([5]; PND 63): no significant difference in the body weight between vehicle-treated mice and PCP-treated mice | % prepulse inhibition, PCP vs vehicle ([4]; PCP 5 mg/kg injected postnatally): reduced the percent inhibition; also recorded: significant reduction in their ability to adjust to sound stimulus as compared to vehicle treated mice | open-field ambulation and rearing, PCP vs vehicle ([1]; PND 16-17, PCP 5 mg/kg injected postnatally): significantly inhibited both ambulation and rearing behaviors | open-field locomotor activity, males, PCP vs vehicle ([1]; PND 35-37, PCP 5 mg/kg injected postnatally): significantly increased the locomotor activity compared with vehicle treatment | time spent in distal end of the opened arm, females, PCP vs vehicle [6]: reduced the time spent in the distal end of the opened arm | time spent in distal end of the opened arm, males, PCP vs vehicle [6]: increased the time spent in the distal end of the opened arm | frequency of entries to the Hidden Zone, males, PCP vs vehicle ([7]; PND 91): appeared to reduce the frequency of entries to the Hidden Zone in males | frequency of entries to the wheel, PCP vs vehicle ([7]; PND 91): reduced the frequency of entries to the wheel | time spent at the Hidden Zone, PCP vs vehicle ([7]; PND 91): increased the time spend at the Hidden Zone | frequency of entries to the Hidden Zone, PCP vs vehicle ([7]; PND 105): increased the frequency of entries to the Hidden Zone

C=C1CC[C@H]2O[C@]2(C)CC[C@@H]2[C@@H]1CC2(C)C [BCP oxide, Caryophyllene oxide]
CB2 receptor binding (CB2 receptor): inactivity | allergenicity [8]: found to be an allergen
